Experimental data as given in patent EP1380291A1, “PDE IV inhibitors for treating multiple sclerosis” (Schering Aktiengesellschaft, priority 1994, dated 1995).

Columns and labels:
[1] = system: encephalitogenic CD4+ MBP-specific rat TCL (L1402); assay: TNF/LT production by an encephalitogenic MBP-specific rat T-cell line, cytotoxicity bioassay; type: cell-based
Description: To assess the ability of rolipram alone or in various combinations as described to modify autoimmune processes, we investigated its influence on TNF production in vitro by MBP-specific T-cell lines from MS patients and Lewis rats. MBP is a major candidate antigen in MS, and T-cell-mediated immunity is of crucial importance in its pathogenesis. Similar to EAE, MBP-specific T-cells in humans are often cytotoxic, of Th1 type secreting interferon (IFN)-gamma and TNF/LT, and recognize epitopes that are also encephalitogenic in EAE.
Similar results were found using an encephalitogenic CD4+ MBP-specific rat TCL (L1402). […] Previous investigations had shown that inhibition of cAMP PDE by rolipram is stereospecific.
TNF and LT may both be produced by autoactive T-cells. CD4+ cells have been reported to be the major source of TFN in autoimmune insulitis of NOD mice. The cytokine bioassay for TNF/LT detection employed here is sensitive to TNF and LT, but is 200 times more sensitive to the former.

[2] = system: mouse and rat forebrain tissue; conditions: in vitro and in vivo binding with 3H-rolipram; previous investigations; cited from earlier work
[3] = system: Experimental Allergic Encephalomyelitis (EAE); assay: Prevention of EAE by Rolipram treatment in marmosets immunized with human brain white matter homogenate; type: in vivo, Callithrix jacchus (common marmoset); conditions: treatment removed on day 60 following immunization; two marmosets
[4] = system: Experimental Allergic Encephalomyelitis (EAE); assay: Treatment of active (chronic) EAE with Rolipram in a marmoset; type: in vivo, Callithrix jacchus (common marmoset); conditions: escalating doses of Rolipram in DMSO
[5] = system: EAE after active immunization (aEAE); assay: EAE after active immunization (aEAE) in Lewis rats; type: in vivo; conditions: drug given from the day of active immunization until day 11
Protocol: (§1) The results of our in vivo findings prompted us to perform treatment experiments in EAE after active immunization (aEAE) and adoptive cell transfer (tEAE) in Lewis rats. […] In clinically manifest EAE, treatment was started within 6 hours of the onset of symptoms. […] In tEAE similar effects were observed. […] Treatment after onset of symptoms also lead to a marked reduction in maximum severity (treated group: MMS 0.7 ± 0.10, n = 5; vehicle treated matched controls 2.45 ± 0.56, n = 5, p 0.01).
In order to distinguish further between a long-term prophylactic or a temporary suppressive effect, animals received the drug from the day of active immunization until day 11.
Histological analysis was performed on selected animals with aEAE. […] In a study on EAE, induced by myelin oligodendrocyte glycoprotein (MOG)-specific T-cells, the lack of neurological signs was ascribed to a decrease of macrophages and parenchymal inflammation, whereas perivascular inflammation and the synthesis of TNF, IFN-gamma, and interleukin-6 was clearly present. In our system, however, the timely onset of paralysis and the morphologically similar appearance of infiltrates in some of the treated animals argues against such a phenomenon. […]

[6] = system: EAE after adoptive cell transfer (tEAE); assay: EAE after adoptive cell transfer (tEAE) in Lewis rats; type: in vivo; conditions: n = 5
Protocol: as §1

COc1ccc(C2CNC(=O)C2)cc1OC1CCCC1 (single isomer, unassigned; (-)) [(-)-rolipram]
times more effective than the (+)-enantiomer (inhibition of TNF/LT production) [1]: 55 times | times higher affinity than the (+)-enantiomers [2]: 15-30 times

COc1ccc(C2CNC(=O)C2)cc1OC1CCCC1 (single isomer, unassigned; (+)) [(+)-rolipram]
EC50 ([1]; inhibition of TNF/LT production, given alone): 280 nM

COc1ccc(C2CNC(=O)C2)cc1OC1CCCC1 (stereo not drawn) [Rolipram, 4-[(3-cyclopentyloxy)-4-methoxyphenyl]-2-pyrrolidinone]
day on which clinical signs of EAE began following withdrawal of Rolipram [3]: 17 days | day of MRI improvement following initiating Rolipram treatment [4]: 14 days | day of marked improvement after initiating treatment [4]: 10 days | delay of aEAE [5]: 3.5 days | mean maximum score (MMN) ([6]; prophylactic treatment, p < 0.01 versus controls): 0.3 ± 0.11 | MMS (maximum severity) ([6]; treatment after onset of symptoms): 0.7 ± 0.10
